Assay results from patent US12589143B2, “Human anti-PD-L1 peptide vaccines and methods of their use” (priority 2019, dated 2026).
Where no end group is shown, it is not given here.

Columns and labels:
[1] = tested on: CT26 colon carcinoma cell line; assay: CT26 WT tumor challenge in immunized Balb/c mice; assay type: in vivo; conditions: for average tumor growth inhibition: day 14 and 16
Excerpt: FIGS. 5A, 5B, 5C, and 5D show the experimental scheme to test the immunization with PD-L1 in Balb/c mice. […] Balb/c mice 6-8 weeks old, were immunized with MVF-peptide immunogens emulsified in ISA 720 with nor-MDP three times and three weeks apart. Mice were immunized with MVF-PD-L1 vaccine constructs [PD-L1(36-53), PD-L1(50-67), PD-L1(95-112), PD-L1(130-147)] prior to tumor challenge. Blood was collected weekly and sera tested for antibody titers by ELISA. Two weeks after the third immunization (3Y), the mice were engrafted with CT26 WT tumor cells 10^5 per mouse Control mice were treated twice weekly with PBS as negative control and twice weekly with anti-mPD-L1 mAb (10F.9G2) as positive control starting 2 days after tumor challenge. Tumor growths were observed twice weekly and measured by calipers.
The peptide vaccines were dissolved in water and emulsified in Montanide ISA 720 (1:1) and 100 μg nor-MDP (N-acetylglucosamine-3yl-acetyl-1-alanyl-d-isoglutamine). Female Balb/c mice (Charles River Laboratories) at the age of 5 to 6 weeks were immunized three times at 3-week intervals with 100 μg peptide vaccine, and 15 days after the third immunization, the mice were challenged s.c. with CT-26 tumor cells (100,000 per mouse). Mice immunized with an irrelevant MVF peptide chimera were used as a negative control.
Mice treated twice a week with anti-mouse PD-L1 MAb (Bio X Cell, West Lebanon, NH) 200 ug/dose was used as a positive control. Tumor growth was monitored for up to 18 days after challenge. During immunization, blood was drawn biweekly and used in ELISA to monitor Ab titers. The mice were euthanized at the end of treatment and tumors extracted and weighed samples of the tumors were saved for further study and for histological examination. The spleens were also collected for further examination.
Two weeks after the third immunization (3Y), the mice were inoculated subcutaneously (s.c) with CT26 carcinoma cells (1×10^5 cells per mouse) and tumor formation was monitored on a daily basis afterwards. Mice treated with PBS served as negative control, and twice weekly treated mice with 200 μg/dose injections of anti-mouse PD-L1 monoclonal antibody (mAb clone 10F.9G2) served as positive control. Tumor growth was monitored daily and measured by caliper. […] PD-L1 B-cell epitope vaccines treatment had similar and significant reduction in tumor growth at day 16 post challenge as compared to negative control treatment with PBS (FIG. 9).
(§1) 6-8 weeks old BALB/c mice (Charles River, Wilmington, MA) were used as standard animal models. Mouse CT26 colon carcinoma cell line was purchased from American Type Culture Collection Cells and were regularly cultured in RPMI1640 medium containing 10% FBS. CT26/HER2 cells were kindly provided by M. Penichet. Vaccines were dissolved in sterile water and emulsified in Montanide ISA 720 (1:1). Female Balb/c mice (Charles River Laboratories) at the age of 6-8 weeks were immunized three times at 3-week intervals with 100 μg of each peptide vaccine, and 2 weeks after the third immunization, the mice were challenged with CT26 and/or CT26/HER-2 tumor cells, which were implanted subcutaneously (s.c) on the right flank (1×10^5 per mouse). 200 μg of rat α-mouse PD-L1 mAb 10F.9G2 (Bio X Cell, West Lebanon, NH) were administered intraperitoneally (i.p.), twice weekly following tumor inoculation in the control group. Mice were monitored and scored for the formation of palpable tumors on a daily basis and sacrificed if tumors became necrotic or exceeded the predetermined size of 2,000 mm^3. Tumor volumes were measured in cubic millimeters with calipers and calculated with the following formula: A×B^2×0.5, where A is the largest diameter, and B is the widest point perpendicular to length. During immunization, blood was drawn weekly and used in ELISA to monitor antibody titers.
Tumor sizes were observed daily and measured by caliper. Tumor volumes were calculated by formula: Volume=(Length*Width*Width)/2. […]

[2] = tested on: MVF-PD-L1 peptide immunogen; assay: Immunogenicity in Balb/c mice, experiment 2 (CT26/HER-2): ELISA of sera vs each MVF-PD-L1 peptide immunogen; assay type: in vivo; conditions: Balb/c mice
Procedure: Immunogenicity of MVF-PD-L1 B-cell epitopes. New Zealand White rabbits were immunized with 1 mg of each MVF-peptide immunogens dissolved in dd H2O emulsified (1:1) in Montanide ISA 720 vehicle (Seppic) with 333 μg of N-acetylglucosamine-3yl-acetyl-1-alanyl-d-isoglutamine (nor-MDP). Rabbits were boosted with the same doses at 3-week's intervals. Blood was collected via the central auricular artery in rabbits. Blood was collected weekly (1Y+3, 2Y+1, 2Y+2,2Y+3, 3Y+1, 3Y+2 and sera tested for antibody titers by ELISA using the immunogens MVF-PD-L1 peptides. Sera (terminal) from rabbit (3Y+3) immunized with MVF-PD-1 peptide immunogens were tested individually versus the immunogen by ELISA. 200 ng/well peptide were used in duplicates to coat the ELISA plates. Titers are defined as the highest dilution of sera with an absorbance value of 0.2 after subtracting the blank. […]
In order to verify the efficacy of the PD-L1 epitope vaccines in vivo in the CT26/HER-2 carcinoma cell line, Balb/c mice (10 mice/group) were immunized with 100 μg each of MVF-PD-L1 (36-53), MVF-PD-L1 (50-67), MVF-PD-L1 (95-112) and MVF-PD-L1 (130-147) emulsified with nor-MDP and Montanide 720 (1:1 ratio) SCHEME 2A (FIG. 15A). As detailed in SCHEME 2A-D (FIGS. 15A, 15B, 15C, and 15D), mice were immunized 3 times at 3 weeks intervals. […] All PD-L1 epitopes elicited high titers of PD-L1 anti-peptide antibodies by ELISA. […] We also investigated the combination of PD-1(92-110) with PD-L1-95.
For each peptide, vaccine antibodies were raised in New Zealand white rabbits, purchased from Charles River Laboratories (Wilmington, MA, USA). Rabbits were immunized with 1 mg of MVF chimeric peptide emulsified in Montanide ISA 720 (Seppic, Paris, France) and boosted 3 times at three week intervals. For mouse experiments, mice, 6-8 weeks old, were immunized with 0.1 mg of peptide emulsified in ISA720 (1:1 ratio). Mice were boosted with the respective doses at 3-week intervals. Blood was then collected and sera were tested for antibody titers. Sera were collected weekly and peptide vaccine antibodies were purified by affinity chromatography using a protein A/G column and the concentration was measured using Spectrophometer. All experiments were performed in accordance with the U.S. Public Health Service Policy on Humane Care and Use of Laboratory animals and approved by the Ohio State University Institutional Animals Care and Use Committee, detailed in the accepted protocol.
as §1

Row | Sequence | tumor inhibition versus PBS ([1]; Balb/c) | average tumor growth inhibition [1] | Immunogenicity (titers) 1′ Conc. 1: ([2]; bleed 1Y + 3) | Immunogenicity (titers) 1′ Conc. 1: ([2]; bleed 2Y + 1) | Immunogenicity (titers) 1′ Conc. 1: ([2]; bleed 2Y + 2) | Immunogenicity (titers) 1′ Conc. 1: ([2]; bleed 2Y + 3) | Immunogenicity (titers) 1′ Conc. 1: ([2]; bleed 3Y + 1) | Immunogenicity (titers) 1′ Conc. 1: ([2]; bleed 3Y + 2) | Immunogenicity (titers) 1′ Conc. 1: ([2]; bleed 3Y + 3)
1 | KLLSLIKGVIVHRLEGVEGPSLFVHGEEDLKVQHSSYRQR (KLLSLIKGVIVHRLEGVEGPSLFVHGEEDLKVQHSSYRQR-NH2) [PD-L1(50)] | significant inhibition of tumor growth | strongest average tumor growth inhibition | 6400 | 25600 | 128000 | 128000 | 128000 | 256000 | 256000
2 | KLLSLIKGVIVHRLEGVEGPSLLIVYWEMEDKNIIQFVHG (KLLSLIKGVIVHRLEGVEGPSLLIVYWEMEDKNIIQFVHG-NH2) [PD-L1(36)] | – | strongest average tumor growth inhibition | 0 | 1600 | 4000 | 32000 | 16000 | 32000 | 16000
3 | KLLSLIKGVIVHRLEGVEGPSLYRCMISYGGADYKRITVK (KLLSLIKGVIVHRLEGVEGPSLYRCMISYGGADYKRITVK-NH2) [PD-L1(95)] | – | – | 100 | 12800 | 64000 | 64000 | 128000 | 128000 | 128000
